Measured values: patent publication US6294568A, “5-arylpyrrole derivatives” (priority 1997, dated 2001)

Assays:
carrageenan footedema = assay: Carrageenan Footedema Suppression Test; assay type: in vivo, SD rats; conditions: oral; paw volume three hours after carrageenan administration
Human COX-1 = target: T1, Human COX-1 (Homo sapiens, UniProt P23219); assay: Human COX-1 Inhibitory Activity Test (TXB2 in blood); assay type: cell-based; conditions: IC50 from Hill Plot
T1 construct: endogenous in cells; host or cells: whole blood of a healthy human donor (own knowledge: TXB2 of clotting blood comes from platelet COX-1)

[1] = tested on: pain threshold of brewer's yeast inflamed hind paw; assay: Analgesic Action Test (Randall et al.); assay type: in vivo, SD rats; conditions: 3 mg/kg oral, 3 hours
Description: SD rats (6 rats per group) fasted overnight were employed for the test. After the measurement of pain threshold values of the left and right hind paws twice using an analgesimeter, the rats were injected subcutaneously with 0.1 ml of 20% brewer's yeast solution at the plantar area of the right hind paw to elicit inflammation. Two hours after the elicitation of inflammation, the pain threshold values of the left and right hind paws were measured and, immediately after the measurement, the test samples were administered orally to the rats. Three hours after the administration, the pain threshold values of the left and right hind paws were measured. […] The dosage amount of each of the test samples was 3 mg/kg.
Pain threshold value rising rate (%)=((pain threshold value of 3 hours after drug administration-pain threshold value of 2 hours after yeast administration)/(pain threshold value before yeast administration-pain threshold value of 2 hours after yeast administration))×100
Pain threshold value fluctuation rate (%)=(1 -(pain threshold value of 3 hours after drug administration/pain threshold value of 2 hours after […]

Subcute Toxicity Test = assay type: in vivo, SD rats; conditions: 100 mg/kg once daily for 14 days, male and female rats
Description: The Subcute toxicity test was conducted as described in the following. SD rats (six each of male and female rats per group) were employed in the present test. The title compound (Preparation Example 1) was suspended in 0.5% methyl cellulose solution to be administered to the rats by a disposable feeding tube (manufactured by Fuchigami Kikai) once daily for 14 days. The dosage of the test samples was 100 mg/kg.

T1 sequence (P23219 24-599): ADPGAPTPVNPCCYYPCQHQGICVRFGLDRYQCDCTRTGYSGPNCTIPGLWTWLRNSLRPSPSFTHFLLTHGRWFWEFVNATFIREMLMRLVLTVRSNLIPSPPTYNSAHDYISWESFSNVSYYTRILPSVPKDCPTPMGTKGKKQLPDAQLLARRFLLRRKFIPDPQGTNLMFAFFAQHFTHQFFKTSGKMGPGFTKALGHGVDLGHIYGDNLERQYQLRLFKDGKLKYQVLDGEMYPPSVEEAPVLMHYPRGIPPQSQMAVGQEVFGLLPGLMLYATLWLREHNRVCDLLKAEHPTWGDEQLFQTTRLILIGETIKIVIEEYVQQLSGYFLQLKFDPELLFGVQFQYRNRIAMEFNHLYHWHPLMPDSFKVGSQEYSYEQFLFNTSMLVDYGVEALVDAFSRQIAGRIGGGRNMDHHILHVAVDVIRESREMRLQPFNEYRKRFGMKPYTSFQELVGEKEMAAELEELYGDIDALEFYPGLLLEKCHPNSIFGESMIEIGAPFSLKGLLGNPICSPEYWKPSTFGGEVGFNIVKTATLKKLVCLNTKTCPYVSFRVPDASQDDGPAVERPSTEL

Q: With `Cc1cc(-c2ccc(F)cc2)c(-c2ccc(S(C)(=O)=O)cc2)[nH]1` [Preparation Example 1, 4-(4-fluorophenyl)-2-methyl-5-(4-methylsulfonylphenyl)-1H-pyrrole] as the compound, how does the “Edematization Suppression rate” value (carrageenan footedema) read?
A: Its value is 35.5%.

Q: What about the IC50 (Human COX-1) of the same compound?
A: The IC50 was 649 µM.

Q: And the “Pain Threshold Value Fluctuation Rate” value ([1]; Left Hind Paw (non-inflammatory paw))?
A: The value was 2.47%.

Q: And the “Pain Threshold Value Rising Rate” value ([1]; Right Hind Paw (inflammatory paw))?
A: The value was 33.3%.

Q: What about the “general symptoms and weight increase” value (Subcute Toxicity Test) of the same compound?
A: The value was “neither of a change in the general symptoms nor an adverse affect on the weight increase was noted”.
